From patent US20220362279A1, “USE OF OLIGONUCLEOTIDES FOR THE TREATMENT AND PREVENTION OF PAIN” (CONSEJO NACIONAL DE INVESTIGACIONES CIENTÍFICAS Y TÉCNICAS, priority 2018, published 2022)
Entries after “also recorded” stand apart in the source; their conditions may differ. Strand notation (5' to 3'): a small letter for the sugar, then the base; units joined by * are phosphorothioate-linked, units joined directly phosphodiester-linked; [ ] holds rarer units or linkages, { } end groups; capitals alone tell only the bases. d = 2'-deoxy (DNA)

Assays:
Assay type in all cases: in vivo, rat
[1] = tested on: rats with hind paw inflammation (CFA rats); assay: Hind paw dorsoventral thickness in rats with CFA-induced hind paw inflammation; conditions: preventive IMT504 before CFA; whole tested period
Description: In fifty-two rats anesthetized with Isoflurane (5% induction, 2.5% maintenance, 0.8 L/min O2 flow rate; Piramal Healthcare, UK), the right hind paw was injected intra-dermally with 100 μl of CFA (1:1, dissolved in normal saline; Sigma-Aldrich, Mo., USA), using a 1 ml syringe with a 25G needle attached. The animals (from now on, called CFA rats) were left to recover from anesthesia in a warm and quiet environment before relocating them in their corresponding cages.
In one set of experiments, called “preventive treatment”, four rats received a daily dose of 20 mg/kg IMT504 for five consecutive days and four weeks later one dose of 6 mg/kg (group a); a second group of four rats received one dose of 6mg/kg of IMT504 (group b) (FIG. 1A). Three days after the single injection of 6 mg/kg IMT504, all eight rats received intra-plantar CFA, after which they were tested for mechanical and cold allodynia during 21 days. At day 28, group b received an additional administration of IMT504 at a dose of 3 mg/kg and was evaluated until day 35. […]
Eight rats received a dose of 6 mg/kg IMT504 (FIGS. 2 and 3). […] On day 28 (FIG. 1) or 28 (FIG. 2), rats receiving preventive IMT504 were administered additional IMT504 at a dose of 3 mg/kg (FIG. 1) or 2 mg/kg (FIG. 2), and assessed until days 21-35.

rats with SNI = assay: Cold allodynia in rats with spared nerve injury (SNI); conditions: single dose of 6 mg/kg seven days after SNI, s.c.
Excerpt: In twenty-six rats anesthetized with Isoflurane (5% induction, 2.5% maintenance, 0.8 L/min O2 flow rate; Piramal Healthcare, UK), the right sciatic nerve and its three distal branches were exposed by blunt dissection, and the tibial and common peronneal branches completely sectioned and ligated to prevent regeneration. The third branch, the sural nerve, was left intact. The animals received one single injection of ketoprofen for post-surgical pain control and were left to recover from anesthesia in a warm and quiet environment before relocating them in their corresponding cages.
Rats were administered subcutaneously using the LT protocol (FIG. 4A) and a single dose of 6 mg/kg of IMT504. This was followed by pain-like behavior testing for up to six weeks after SNI.
Naïve (uninjured and untreated; n=16), CFA injured untreated (n=10), and vehicle-treated CFA (n=9) or SNI rats (n=10) were used as controls. Eight naïve rats remained untreated, four were vehicle-treated, and four received a daily dose of 20 mg/kg IMT504 for five consecutive days. Untreated CFA rats received an intradermal hind paw injection of CFA and no further treatment. […]
For cold allodynia assessment, the reaction to the application of a drop of acetone onto the plantar surface of the hind paw was used. Both frequency of withdrawal and cold score (pain-like behavior intensity) were measured.

naïve rats = assay: Tail immersion test (tail heat nociception) in naïve rats; conditions: 20 mg/kg daily x5; observed up to 22 days; 52° C. bath
Description: Naïve (uninjured and untreated; n=16), CFA injured untreated (n=10), and vehicle-treated CFA (n=9) or SNI rats (n=10) were used as controls. Eight naïve rats remained untreated, four were vehicle-treated, and four received a daily dose of 20 mg/kg IMT504 for five consecutive days. Untreated CFA rats received an intradermal hind paw injection of CFA and no further treatment. Vehicle-treated CFA rats received five daily subcutaneous injections of saline (200 μl), starting seven days after injury. Vehicle-treated SNI rats received one single dose of saline (200 ul), starting seven days after injury.
For acute thermal nociception assessment, the tail immersion test was used. The latency of tail-flick reflex to swift immersion of the last 3 cm of the tip of the tail of each rat on a hot bath (52° C.) was measured using a stopwatch (resolution of 0.01 s). This was repeated three times, with 10 s intervals, and an average response was obtained.

[2] = tested on: rats with postsurgical pain (plantar incision); assay: Naloxone challenge in IMT504-pre-treated rats with plantar incision, mechanical withdrawal threshold
Description: In all experiments, the oligodeoxynucleotide (ODN) IMT504, with sequence 5′-[sequence]-3′ (SEQ ID No 1) was used. The HPLC-grade phosphorothioate ODN (Biosynthesis Inc., Lewisville, Tex., USA) was suspended in sterile saline solution (VEH, 0.9% NaCl; 20 mg/ml; storage concentration) and assayed for LPS contamination. Working concentration doses (6 mg/kg) were obtained by additional dissolving in sterile VEH. The ODN was administered subcutaneously, at a final volume of 200-300 μl, depending on animal weight.
A group of rats also received an intraperitoneal (i.p.) injection of naloxone hydrochloride (Narxona 0.4 mg/ml; Scott-Cassara, Bs. As., Argentina), at a dose of 2 mg/kg, in order to test if the effect of IMT504 could be blocked by the pan-opioid receptor antagonist.
The rat hind paw plantar incision model of postoperative pain was used as previously described [Brennan, T. J., E. P. Vandermeulen, and G. F. Gebhart, Characterization of a rat model of incisional pain. […] Briefly, rats were anesthetized using isoflurane (5% induction, 2.5% maintenance, 0.8 l/min O2 flow rate; Piramal Healthcare, UK) and the plantar aspect of the right hind paw was disinfected with povidone iodine. A 1.0-cm longitudinal incision was made 0.5 cm from the end of the heel. The underlying flexor muscle was also incised longitudinally, allowing the muscle origin and insertion to remain intact. After hemostasis by gentle pressure, the skin was closed with sutures of 5-0 nylon.
Rats were divided into injured rats receiving IMT504 (6 mg/kg, dissolved in VEH) or VEH alone, 48h and 24 h prior to surgery. […]
Mechanical withdrawal thresholds were assessed by using von Frey nylon monofilaments of different bending forces (1.4, 2, 6, 8, 10, 15 and 26 g; Stoelting Inc., Wooddale, USA) and the modified up-down method of Dixon, as described by Chaplan and cols. (Chaplan, S. R., et al., Quantitative assessment of tactile allodynia in the rat paw. J Neurosci Methods, 1994. 53(1): p. 55-63) , to establish the 50% withdrawal threshold. […]

Substance: IMT504: synthetic phosphorothioate oligodeoxynucleotide with sequence 5′-TCATCATTTTGTCATTTTGTCATT-3′ (SEQ ID No 1) (DNA dT*dC*dA*dT*dC*dA*dT*dT*dT*dT*dG*dT*dC*dA*dT*dT*dT*dT*dG*dT*dC*dA*dT*dT)
- effect on hind paw inflammation (dorsoventral paw thickness) [1]: does not prevent occurrence of inflammation; also recorded: did not seem to alter the natural course of hind paw inflammation; also recorded: without altering the inflammatory state of the affected hind paw
- cold score (rats with SNI): reduced to basal levels ten days after injury and onwards
- cold withdrawal frequency reduced to basal levels (rats with SNI): three weeks after injury
- tail thermal withdrawal latency in naïve rats (naïve rats): did not shown changes; also recorded: did not show any evident changes
- anti-allodynic effect of IMT504 under systemic non-selective opioid receptor antagonist ([2]; naloxone 2 mg/kg i.p. at day 3 after injury (FIG. 18)): temporarily blocked
- mechanical allodynia on day 3 after injury ([2]; two doses of pre-emptive IMT504 (6 mg/kg, 48 h and 24 h before surgery)): completely abolished
